Structures can show the parent of a compound that is named as a salt. Where two headings read alike, the source gives them in different places.
Molecular target: T1, human A3AR (Homo sapiens, UniProt P0DMS8)
T1 construct: expressed in transfected cells
T1 sequence (P0DMS8 1-318): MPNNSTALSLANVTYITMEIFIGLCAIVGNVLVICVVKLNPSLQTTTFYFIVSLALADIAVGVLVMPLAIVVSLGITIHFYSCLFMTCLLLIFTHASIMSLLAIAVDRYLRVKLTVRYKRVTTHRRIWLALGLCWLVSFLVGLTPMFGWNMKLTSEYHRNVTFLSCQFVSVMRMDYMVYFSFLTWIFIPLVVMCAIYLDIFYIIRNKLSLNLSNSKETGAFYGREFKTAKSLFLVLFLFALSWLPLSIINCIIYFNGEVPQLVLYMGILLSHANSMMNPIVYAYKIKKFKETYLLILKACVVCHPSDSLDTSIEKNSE
Assay: LOPAC library primary screen: single concentration (10 μM) inhibition of 25 nM CA200645 binding, PHERAstar FS

[1] = compounds tested at 10 µM, % of control wells (1% DMSO and 25 nM CA200645), whole live cells expressing the A3AR, mean ± SD, three experiments in duplicate

CN1CCN(c2nc3cc(C(F)(F)F)ccc3n3cccc23)CC1.O=C(O)/C=C\C(=O)O [CGS-12066A maleate]
% 25 nM CA200645 binding: 97.3 ± 10.3%

COC(=O)C1=CCCN(C)C1 [Arecoline hydrobromide]
% 25 nM CA200645 binding: 81.8 ± 27.0%

NS(=O)(=O)c1cc2c(cc1Cl)N=CNS2(=O)=O [Chlorothiazide]
% 25 nM CA200645 binding: 107.7 ± 8.4%

CC[C@H]1OC(=O)[C@H](C)[C@@H](O[C@H]2C[C@@](C)(OC)[C@@H](O)[C@H](C)O2)[C@H](C)[C@@H](O[C@@H]2O[C@H](C)C[C@H](N(C)C)[C@H]2O)[C@](C)(O)C[C@@H](C)CN(C)[C@H](C)[C@@H](O)[C@]1(C)O [Azithromycin dihydrate]
% 25 nM CA200645 binding: 98.9 ± 6.9%

N[C@H]1CON=C1O [L-Cycloserine]
% 25 nM CA200645 binding: 98.0 ± 1.4%

Cl.NNC(N)=O [Semicarbazide hydrochloride]
% 25 nM CA200645 binding: 98.7 ± 22.6%

C#CCn1c(=O)c2c(ncn2C)n(C)c1=O [3,7-Dimethyl-1-propargylxanthine]
% 25 nM CA200645 binding: 94.8 ± 1.8%

C#CCn1c(=O)c2c(ncn2C)n(C)c1=O [DMPX, reference compound]
hit in LOPAC primary screen (inhibited the binding of CA200645 by >40%) (10 μM compound, 25 nM CA200645, A3AR CHO cells): identified

C[C@](N)(CCP(=O)(O)O)C(=O)O.Cl [(S)-MAP4 hydrochloride]
% 25 nM CA200645 binding: 89.0 ± 15.4%

C=CCN1CC[C@]23c4c5ccc(O)c4O[C@H]2C(=O)CC[C@@]3(O)[C@H]1C5 [Naloxone hydrochloride]
% 25 nM CA200645 binding: 114.3 ± 14.2%

CNS(=O)(=O)CCc1ccc2[nH]cc(C3CCN(C)CC3)c2c1 [Naratriptan hydrochloride]
% 25 nM CA200645 binding [1]: 102.9 ± 17.6%

Nc1ncnc2c1ncn2C1CCCO1 (stereo not drawn) [SQ 22536]
% 25 nM CA200645 binding: 102.7 ± 4.9%

C[C@]12C=CC(=O)C=C1CC[C@H]1[C@@H]3C[C@@H](O)[C@](O)(C(=O)CO)[C@@]3(C)C[C@H](O)[C@@]12F [Triamcinolone]
% 25 nM CA200645 binding: 95.9 ± 21.3%

CC(C)(C)NCC(O)c1ccccc1Cl (stereo not drawn) [Tulobuterol hydrochloride]
% 25 nM CA200645 binding: 99.9 ± 4.7%

(±)-Ibuprofen
% 25 nM CA200645 binding: 91.4 ± 12.3%

CC(=O)[C@H]1CC[C@H]2[C@@H]3CC[C@H]4C[C@H](O)CC[C@]4(C)[C@H]3CC[C@]12C [5alpha-Pregnan-3alpha-ol-20-one]
% 25 nM CA200645 binding: 85.2 ± 19.4%

NC(N)=NOCC[C@H](N)C(=O)O [L-Canavanine]
% 25 nM CA200645 binding: 101.1 ± 4.7%

C[N+](C)(C)CCOC(N)=O [Carbachol]
% 25 nM CA200645 binding: 103.1 ± 3.5%

O=C1NC(=O)[C@@]2(CCOc3ccc(F)cc32)N1 [Sorbinil]
% 25 nM CA200645 binding [1]: 96.4 ± 14.0%

N#C/C(=C\c1ccc(O)c(O)c1)C(=O)c1ccc(O)c(O)c1 [Tyrphostin AG 538]
% 25 nM CA200645 binding: 90.2 ± 14.0%

C[C@H]1CCC/C=C/[C@@H]2C[C@H](O)C[C@H]2[C@H](O)/C=C/C(=O)O1
% 25 nM CA200645 binding: 87.5 ± 5.2%

O=C1CC[C@@]2(O)[C@H]3Cc4ccc(O)c5c4[C@@]2(CCN3CC2CC2)[C@H]1O5 [Naltrexone hydrochloride]
% 25 nM CA200645 binding [1]: 102.6 ± 6.5%

S-Nitroso-N-acetylpenicillamine
% 25 nM CA200645 binding: 127.5 ± 10.1%

OCc1cc(C(O)CNCCCCCCOCCCCc2ccccc2)ccc1O (stereo not drawn) [Salmeterol xinafoate]
% 25 nM CA200645 binding: 92.6 ± 8.3%

Cl.NCCCCC(=O)O [5-Aminovaleric acid hydrochloride]
% 25 nM CA200645 binding: 97.9 ± 5.1%

Cn1c(=O)c2c(ncn2C)n(C)c1=O [caffeine, reference compound]
% 25 nM CA200645 binding: 95.8 ± 4.7%

COc1ccc(Cc2nccc3cc(OC)c(OC)cc23)cc1OC [Papaverine hydrochloride]
% 25 nM CA200645 binding: 86.6 ± 22.0%

N#CC(C#N)=C(N)/C(C#N)=C/c1cc(O)c(O)c(O)c1 [Tyrphostin 51]
% 25 nM CA200645 binding [1]: 94.9 ± 2.9%

CS(=O)(=O)Nc1ccc([N+](=O)[O-])cc1Oc1ccccc1 [Nimesulide]
% 25 nM CA200645 binding: 114.0 ± 22.1%

C[n+]1cc2c3c(ccc2c2ccc4cc5c(cc4c21)OCO5)OCO3 [Sanguinarine chloride]
% 25 nM CA200645 binding: 38.9 ± 20.6%

N#C/C(=C\c1ccc(-c2cc(Cl)ccc2Cl)o1)C(=O)Nc1cccc2ncccc12 [AGK2]
% 25 nM CA200645 binding: 35.8 ± 5.6%

CCCn1c(=O)c2[nH]c(-c3ccc(S(=O)(=O)O)cc3)nc2n(CCC)c1=O [1,3-dipropyl-8-p-sulfophenylxanthine, reference compound]
% 25 nM CA200645 binding: 42.3 ± 4.8% | % Total CA200645 binding: 42.3 ± 4.8% | hit in LOPAC primary screen (inhibited the binding of CA200645 by >40%): identified

NC(CCCP(=O)(O)O)C(=O)O (racemic) [(±)-2-Amino-5-phosphonopentanoic acid]
% 25 nM CA200645 binding [1]: 90.8 ± 6.2%

NC(=Nc1ccccc1)NC(=O)c1nc(Cl)c(N)nc1N [Phenamil methanesulfonate]
% 25 nM CA200645 binding (% of control wells (1% DMSO and 25 nM CA200645), compounds at 10 µM, whole live cells expressing the A3AR, mean ± SD, three experiments in duplicate): 100.4 ± 3.8%

CC[N+](CC)(CC)CCOc1cccc(OCC[N+](CC)(CC)CC)c1OCC[N+](CC)(CC)CC [Gallamine triethiodide]
% 25 nM CA200645 binding: 78.3 ± 38.7%

CN1CCc2cc(Cl)c(O)cc2[C@@H](c2ccccc2)C1.Cl [R(+)-SCH-23390 hydrochloride]
% 25 nM CA200645 binding: 96.2 ± 12.3%

Br.C=CCN1CCc2c(cc(O)c(O)c2Br)[C@@H](c2ccccc2)C1 [R(+)-6-Bromo-APB hydrobromide]
% 25 nM CA200645 binding: 77.8 ± 20.1%

CC[N+](CC)(CC)CCOc1ccc(/C=C/c2ccccc2)cc1 [MG 624]
% 25 nM CA200645 binding: 106.9 ± 11.5%

N[C@H](C(=O)O)c1cc(O)cc(O)c1 [(S)-3,5-Dihydroxyphenylglycine]
% 25 nM CA200645 binding: 102.7 ± 20.4%

Nc1ncn([C@@H]2O[C@H](CO)[C@@H](O)[C@H]2O)c(=O)n1 [5-azacytidine]
% 25 nM CA200645 binding: 92.0 ± 10.7%

Cc1cccc(C)c1OCC(C)N.Cl (stereo not drawn) [Mexiletene hydrochloride]
% 25 nM CA200645 binding: 99.4 ± 6.9%

OCCN1CCN(CC/C=C2/c3ccccc3Sc3ccc(C(F)(F)F)cc32)CC1 [cis-(Z)-Flupenthixol dihydrochloride]
% 25 nM CA200645 binding: 96.5 ± 4.1%

O=C(NCCN1CCOCC1)c1ccc(Cl)cc1 [Moclobemide]
% 25 nM CA200645 binding: 97.8 ± 6.0%

COc1ccc(OC)c(C(O)C(C)N)c1 (stereo not drawn) [Methoxamine hydrochloride]
% 25 nM CA200645 binding: 132.3 ± 57.0%

O=C(O)c1cc2cc(F)ccc2[nH]1 [5-Fluoroindole-2-carboxylic acid]
% 25 nM CA200645 binding: 92.5 ± 8.9%

CCCN(CCC)CCc1cccc2c1CC(=O)N2 [Ropinirole hydrochloride]
% 25 nM CA200645 binding: 107.5 ± 15.4%

CN(C)c1ccc(O)c2c1C[C@H]1C[C@H]3[C@H](N(C)C)C(O)=C(C(N)=O)C(=O)[C@@]3(O)C(O)=C1C2=O [Minocycline hydrochloride]
% 25 nM CA200645 binding: 101.7 ± 17.9%

COc1ccc2[nH]c3c(c2c1)CCNC3
% 25 nM CA200645 binding: 93.4 ± 1.1%

N[C@H](C(=O)O)[C@H](Cc1ccccc1)C(=O)O [L-Beta-threo-benzyl-aspartate]
% 25 nM CA200645 binding: 95.9 ± 9.2%

O=C(O)c1ccccc1Nc1ccccc1 [N-Phenylanthranilic acid]
% 25 nM CA200645 binding: 95.2 ± 6.4%

O=c1c(O)c(-c2ccc(O)c(O)c2)oc2cc(O)cc(O)c12 [Quercetin dihydrate]
% 25 nM CA200645 binding (% of control wells (1% DMSO and 25 nM CA200645), compounds at 10 µM, […], mean ± SD, three experiments in duplicate): 25.2 ± 6.9%

CC(C)N(CCC(C(N)=O)(c1ccccc1)c1ccccn1)C(C)C (stereo not drawn) [Disopyramide]
% 25 nM CA200645 binding: 78.9 ± 27.0%
